Usually Ki stands for the dissociation constant of the complex between target and ligand, obtained from inhibition or displacement. Low readings indicate higher affinity, high ones lower affinity. One may read the Km as the concentration of substrate that gives half-maximal velocity.

This passage reports Ki and Km results from article PMC12655445, “In Vitro and In Vivo Effects of Resveratrol on Rat Hepatic CYP1A2” (Pharmaceuticals, 2025).

For data set [1], the target named is T1, rat liver microsomal CYP1A2 (Rattus norvegicus, UniProt P04799).
T1 construct: rat liver microsomes
T1 sequence (P04799 2-513): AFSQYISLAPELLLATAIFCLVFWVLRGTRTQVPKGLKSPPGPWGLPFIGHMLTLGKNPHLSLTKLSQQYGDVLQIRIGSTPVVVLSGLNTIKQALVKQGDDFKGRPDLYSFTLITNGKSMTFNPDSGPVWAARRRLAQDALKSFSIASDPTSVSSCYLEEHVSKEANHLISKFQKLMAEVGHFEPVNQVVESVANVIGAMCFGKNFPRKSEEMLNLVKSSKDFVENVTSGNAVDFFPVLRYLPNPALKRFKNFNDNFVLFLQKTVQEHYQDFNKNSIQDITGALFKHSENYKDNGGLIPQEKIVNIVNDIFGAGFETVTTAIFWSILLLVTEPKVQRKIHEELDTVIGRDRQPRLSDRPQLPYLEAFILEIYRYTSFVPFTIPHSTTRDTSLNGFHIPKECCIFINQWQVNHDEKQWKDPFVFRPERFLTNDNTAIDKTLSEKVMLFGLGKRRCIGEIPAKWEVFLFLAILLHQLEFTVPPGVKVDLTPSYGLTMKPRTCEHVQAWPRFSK
Nature of the data set: MROD fluorescence assay in rat liver microsomes, inhibition kinetics (IC50 […]). Type of data set: biochemical. Background: Microsomes from liver hold many membrane-bound enzymes, among them those of drug oxidation.

Substrate in data set [2]: COc1ccc2nc3ccc(=O)cc-3oc2c1
The experiment in a line: MROD kinetics with recombinant CYP1A2 membranes; value is Km. Type of data set: biochemical, Homo sapiens. To be noted: heme; NADPH.

In data set [1], `Oc1ccc(/C=C/c2cc(O)cc(O)c2)cc1` [RSV, trans-3,4′,5-trihydroxystilbene] yielded an inhibitory constant (Ki) of 49.1 µM.

B1: human recombinant CYP1A2 (Homo sapiens) (protein)
chain: ALSQSVPFSATELLLASAIFCLVFWVLKGLRPRVPKGLKSPPEPWGWPLLGHVLTLGKNPHLALSRMSQRYGDVLQIRIGSTPVLVLSRLDTIRQALVRQGDDFKGRPDLYTSTLITDGQSLTFSTDSGPVWAARRRLAQNALNTFSIASDPASSSSCYLEEHVSKEAKALISRLQELMAGPGHFDPYNQVVVSVANVIGAMCFGQHFPESSDEMLSLVKNTHEFVETASSGNPLDFFPILRYLPNPALQRFKAFNQRFLWFLQKTVQEHYQDFDKNSVRDITGALFKHSKKGPRASGNLIPQEKIVNLVNDIFGAGFDTVTTAISWSLMYLVTKPEIQRKIQKELDTVIGRERRPRLSDRPQLPYLEAFILETFRHSSFLPFTIPHSTTRDTTLNGFYIPKKCCVFVNQWQVNHDPELWEDPSEFRPERFLTADGTAINKPLSEKMMLFGMGKRRCIGEVLAKWEIFLFLAILLQQLEFSVPPGVKVDLTPIYGLTMKHARCEHVQARLRFSIN
notes: human CYP1A2 expressed with NADPH P450 reductase in Escherichia coli DH5α; bacterial membranes; with NADPH P450 reductase
B1: the Km in data set [2] is reported as 1.67 µM.
